Experiment: Test method of measuring skin temperature when smelling the aroma of the test sample
Type: in vivo, human
Conditions: females in their 20's, aroma smelled from soaked cotton, chest skin temperature as reference, 25 °C, humidity 45%; for effect of the aroma on the skin temperature of the cheek (change level with aroma minus change level with no aroma): samples 0.05-0.1 mass % in triethyl citrate or ethanol, FIG. 1
Method: The present invention will be explained below in more detail with reference to examples. Test samples were prepared which were a dilution of an extract of Japanese peppermint by triethyl citrate to a concentration of 0.05 mass %, a dilution of an extract of juniper berry by triethyl citrate to a concentration of 0.1 mass %, a dilution of an extract of […] by triethyl citrate to a concentration of 0.05 mass %, a dilution of dihydro-β-ionol by ethanol to a concentration of 0.1 mass %, a dilution of geraniol by ethanol to a concentration of 0.1 mass %, and a dilution of 4-methoxystyrene by ethanol to a concentration of 0.5 mass %, and how the aromas of those test samples influenced a skin temperature was tested. In this example, test subjects were females in their 20's. Five test subjects for the extract of Japanese peppermint, seven test subjects for the extract of juniper berry, three test subjects for the extract of […] test subjects for dihydro-β-ionol, five test subjects for geraniol, and seven test subjects for 4-methoxystyrene participated in the tests. The test content was explained in advance to the test subjects, and the participation in the test was agreed in writing. The tests were carried out in a room at a constant temperature set to 25 ° C. and a constant humidity set to 45%. Skin temperature sensors were attached to a cheek of the test subject, a hand fingertip (middle finger), and a chest, and connected to a temperature monitor to successively measure the skin temperature. […] Skin temperature change levels of a cheek and those of a hand fingertip between when an aroma was smelled and when no aroma was smelled were compared with each other, and an effect of the aroma of the test sample to the skin temperature was evaluated. […] When this value is a positive one, it is determined that a skin temperature is raised and when this value is a negative one, it is determined that a skin temperature is lowered.

Compound | effect of the aroma on the skin temperature of the cheek (change level with aroma minus change level with no aroma) | effect of the aroma on the skin temperature of the hand fingertip (change level with aroma minus change level with no aroma) (middle finger, samples 0.05-0.5 mass % in triethyl citrate or ethanol, FIG. 2)
CC(C)=CCC/C(C)=C/CO [geraniol, Geraniol] | effect of raising the skin temperature of the cheek | 
C=Cc1ccc(OC)cc1 [4-methoxystyrene] |  | effect of raising the skin temperature of the hand fingertip
CC1=C(CCC(C)O)C(C)(C)CCC1 (stereo not drawn) [dihydro-β-ionol, Dihydro-β-ionol] | effect of raising the skin temperature of the cheek | 
